We go through 25 molecules from patent US20240383904A1, “HETEROCYCLIC COMPOUNDS” (Hoffmann-La Roche Inc., priority 2021, published 2024).

This assay concerns the target T1, MAGL (Homo sapiens, UniProt Q99685).
T1 sequence (Q99685 1-303): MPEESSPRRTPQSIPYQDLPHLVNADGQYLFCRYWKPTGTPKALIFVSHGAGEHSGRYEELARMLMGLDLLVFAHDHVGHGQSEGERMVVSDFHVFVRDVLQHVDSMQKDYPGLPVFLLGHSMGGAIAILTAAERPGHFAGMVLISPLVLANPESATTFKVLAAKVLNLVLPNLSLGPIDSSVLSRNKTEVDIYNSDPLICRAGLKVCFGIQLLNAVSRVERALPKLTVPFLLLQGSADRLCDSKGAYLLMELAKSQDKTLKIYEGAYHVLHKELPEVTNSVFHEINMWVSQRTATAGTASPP
In words: 2-AG assay: MAGL inhibitory activity by hydrolysis of 2-arachidonoylglycerol to arachidonic acid, followed by mass spectrometry. In kind it is biochemical. The conditions noted are these: 15 min preincubation, 30 min reaction at RT, 8 μM 2-arachidonoylglycerol. An excerpt:
Compounds of formula (I) were profiled for MAGL inhibitory activity by determining the enzymatic activity by following the hydrolysis of the natural substrate 2-arachidonoylglycerol (2-AG) resulting in arachidonic acid, which can be followed by mass spectrometry. This assay is hereinafter abbreviated “2-AG assay”.
Compounds of formula (I) were profiled for MAGL inhibitory activity by determining the enzymatic activity by following the hydrolysis of the natural substrate 2-arachidonoylglycerol (2-AG) resulting in arachidonic acid, which can be followed by mass spectrometry. This assay is hereinafter abbreviated “2-AG assay”. The 2-AG assay was carried out in 384 well polypropylene assay plates. Compound dilutions were made in 100% DMSO in a polypropylene plate in 3-fold dilution steps to give a final concentration range in the assay from 12.5 μM to […]. Compound dilutions were added to MAGL protein in assay buffer (50 mM TRIS, 1 mM EDTA, 0.01% (v/v) Tween-20, 2.5% (v/v) DMSO). After shaking, the plate was incubated for 15 min at RT. To start the reaction, 2-arachidonoylglycerol in assay buffer was added. The final concentrations in the assay was […] for MAGL protein and 8 μM 2-arachidonoylglyerol. After shaking and 30 min incubation at RT, the reaction was quenched by the addition of two assay volumes of acetonitrile containing 4 μM of d8-arachidonic acid. The amount of arachidonic acid formed was traced by an online SPE system (Agilent Rapidfire) coupled to a triple quadrupole mass spectrometer. A C18 SPE cartridge (Agilent G9205A) was used in an acetonitrile/water liquid setup. The mass spectrometer was operated in negative electrospray mode following the mass transitions 303.1→259.1 for arachidonic acid and 311.1→267.0 for d8-arachidonic acid. The activity of the compounds was calculated based on the ratio of intensities [arachidonic acid/d 8-arachidonic acid].
In turn, “2-[6-[[6- (trifluoromethyl)pyrida- zin-3-y1]methyl]-2- azaspiro[3.3]heptane-2- carbonyl]-2,5- diazaspiro[3.4]octan-6- one [Example 12]” yielded an IC50 of 36.4 nM.

Take `CS(=O)(=O)c1ccc(C[C@@H]2CCC3(C2)CN(C(=O)N2CC4(COCC(=O)N4)C2)C3)cc1` (single isomer, unassigned) [Example 73]: half-maximal inhibition (IC50) was put at 80.2 nM.

The molecule `CS(=O)(=O)c1ccc(C[C@H]2CCC3(C2)CN(C(=O)N2CC4(COCC(=O)N4)C2)C3)cc1` (single isomer, unassigned) [Example 74] had an IC50 of 77.7 nM. With `O=C1NC2(CO1)CN(C(=O)N1CC3(CC[C@H](Oc4cnc(C(F)(F)F)cn4)C3)C1)C2` (single isomer, unassigned) [Example 100] the figure was 3.42 nM; with `O=C1NC2(CO1)CN(C(=O)N1CC3(CCC(Oc4cnc(C(F)(F)F)cn4)C3)C1)C2` (single isomer, unassigned) [Example 104], 2.85 nM; with `N=[S@@](=O)(c1ccc(CC2CC3(C2)CN(C(=O)N2CC4(CCCC(=O)N4)C2)C3)cc1)C(F)(F)F` (single isomer, unassigned) [Example 284, 2-[6-[[4-(trifluoromethylsulfoni-midoyl)phenyl]methyl]-2-azaspiro[3.3]heptane-2-carbonyl]-2,5-diazaspiro[3.5]nonan-6-one], 120 nM. Molecule `N=[S@@](=O)(c1ccc(CC2CC3(C2)CN(C(=O)N2CC4(CCCC(=O)N4)C2)C3)cc1)C(F)(F)F` (single isomer, unassigned) [Example 287, 2-[6-[[4-(trifluoromethylsulfoni-midoyl)phenyl]methyl]-2-azaspiro[3.3]heptane-2-carbonyl]-2,5-diazaspiro[3.5]nonan-6-one] yielded a half-inhibitory concentration (IC50) of 437 nM. This IC50 lies about 3.6-fold higher than the previous one. The molecule `N=S(=O)(c1cccc(CC2CC3(C2)CN(C(=O)N2CC4(CCC(=O)N4)C2)C3)c1)C(F)(F)F` (stereo not shown) [Example 1] gave an IC50 of 0.91 nM. Against the preceding molecule, the IC50 is about 480-fold lower. Molecule `N=S(=O)(c1ccc(CC2CC3(C2)CN(C(=O)N2CC4(CCC(=O)N4)C2)C3)cc1)C(F)(F)F` (stereo not shown) [Example 2, 2-[6-[4-(trifluoromethylsulfoni-midoyl)benzyl]-2-azaspiro[3.3]heptane-2-carbonyl]-2,5-diazaspiro[3.4]octan-6-one] showed an IC50 of 2.15 nM. The same measure for `O=C1CCC2(CN(C(=O)N3CC4(CC(Cc5ccc(C(F)(F)F)nc5)C4)C3)C2)N1` [Example 3, 2-[6-[[6-(trifluoromethyl)-3-pyridyl]methyl]-2-azaspiro[3.3]heptane-2-carbonyl]-2,5-diazaspiro[3.4]octan-6-one]: 2.85 nM. `O=C1CCC2(CN(C(=O)N3CC4(CC(Cc5cnc(C(F)(F)F)cn5)C4)C3)C2)N1` [Example 4, 2-[6-[[5-(trifluoromethyl)pyrazin-2-yl]methyl]-2-azaspiro[3.3]heptane-2-carbonyl]-2,5-diazaspiro[3.4]octan-6-one] came in with an IC50 of 11.2 nM.

For the molecule `O=C1NC2(CO1)CN(C(=O)N1CC3(CC(Cc4cnc(C(F)(F)F)cn4)C3)C1)C2` [Example 5, 2-[6-[[5-(trifluoromethyl)pyrazin-2-y1]methyl]-2-azaspiro[3.3]heptane-2-carbonyl]-7-oxa-2,5-diazaspiro[3.4]octan-6-one], the IC50 came out at 1.15 nM. The same measure for `O=C1CCC2(CN(C(=O)N3CC4(CC(Cc5ccc(OC(F)(F)F)cn5)C4)C3)C2)N1` [Example 6, 2-[6-[[5-(trifluoromethoxy)-2-pyridyl]methyl]-2-azaspiro[3.3]heptane-2-carbonyl]-2,5-diazaspiro[3.4]octan-6-one]: 0.47 nM. Molecule `O=C1CCC2(CN(C(=O)N3CC4(CC(Cc5ncc(C(F)(F)F)cc5F)C4)C3)C2)N1` [Example 7, 2-[6-[[3-fluoro-5-(trifluoromethyl)-2-pyridyl]methyl]-2-azaspiro[3.3]heptane-2-carbonyl]-2,5-diazaspiro[3.4]octan-6-one] returned an IC50 of 0.35 nM. The IC50 values of the last two molecules are within 1.5-fold of each other. With `CS(=O)(=O)c1ccc(CC2CC3(C2)CN(C(=O)N2CC4(CCC(=O)N4)C2)C3)cc1` [Example 8, 2-[6-(4-mesylbenzyl)-2-azaspiro[3.3]heptane-2-carbonyl]-2,5-diazaspiro[3.4]octan-6-one] the figure was 15.1 nM; with `CS(=O)(=O)c1cccc(CC2CC3(C2)CN(C(=O)N2CC4(CCC(=O)N4)C2)C3)c1` [Example 9, 2-[6-(3-mesylbenzyl)-2-azaspiro[3.3]heptane-2-carbonyl]-2,5-diazaspiro[3.4]octan-6-one], 20.5 nM. For the molecule `CS(=O)(=O)c1cc(F)cc(CC2CC3(C2)CN(C(=O)N2CC4(CCC(=O)N4)C2)C3)c1` [Example 10, 2-[6-(3-fluoro-5-mesyl-benzyl)-2-azaspiro[3.3]heptane-2-carbonyl]-2,5-diazaspiro[3.4]octan-6-one], the midpoint of inhibition, the IC50, lay at 24.5 nM. The same measure for `O=C1CCC2(CN(C(=O)N3CC4(CC(Cc5cnc(C(F)(F)F)nc5)C4)C3)C2)N1` [Example 11, 2-[6-[[2-(trifluoromethyl)pyrimi-din-5-y1]methyl]-2-azaspiro[3.3]heptane-2-carbonyl]-2,5-diazaspiro[3.4]octan-6-one]: 31.2 nM; for `CS(=O)(=O)c1ccc(CC2CC3(C2)CN(C(=O)N2CC4(COC(=O)N4)C2)C3)cc1` [Example 13, 2-[6-(4-mesylbenzyl)-2-azaspiro[3.3]heptane-2-carbonyl]-7-oxa-2,5-diazaspiro[3.4]octan-6-one]: 0.93 nM. With `O=C1NC2(CO1)CN(C(=O)N1CC3(CC(Cc4ccc(C(F)(F)F)nc4)C3)C1)C2` [Example 14, 2-[6-[[6-(trifluoromethyl)-3-pyridyl]methyl]-2-azaspiro[3.3]heptane-2-carbonyl]-7-oxa-2,5-diazaspiro[3.4]octan-6-one] the figure was 0.84 nM; with `CS(=O)(=O)c1cc(F)ccc1CC1CC2(C1)CN(C(=O)N1CC3(COC(=O)N3)C1)C2` [Example 15, 2-[6-(4-fluoro-2-mesyl-benzyl)-2-azaspiro[3.3]heptane-2-carbonyl]-7-oxa-2,5-diazaspiro[3.4]octan-6-one], 0.3 nM; with `N#Cc1cc(CC2CC3(C2)CN(C(=O)N2CC4(CCC(=O)N4)C2)C3)ccc1C(F)(F)F` [Example 16, 5-[[2-(6-keto-2,5-diazaspiro[3.4]octane-2-carbonyl)-2-azaspiro[3.3]heptan-6-yl]methyl]-2-(trifluoromethyl)benzoni-trile], 0.09 nM. With `N#Cc1cc(CC2CC3(C2)CN(C(=O)N2CC4(CNC(=O)N4)C2)C3)ccc1C(F)(F)F` [Example 17, 5-[[2-(6-keto-2,5,7-triazaspiro[3.4]octane-2-carbonyl)-2-azaspiro[3.3]heptan-6-yl]methyl]-2-(trifluoromethyl)benzoni-trile] the figure was 3.29 nM; with `N#Cc1cc(CC2CC3(C2)CN(C(=O)N2CC4(COC(=O)N4)C2)C3)ccc1C(F)(F)F` [Example 18, 5-[[2-(6-keto-7-oxa-2,5-diazaspiro[3.4]octane-2-carbonyl)-2-azaspiro[3.3]heptan-6-yl]methyl]-2-(trifluoromethyl)benzoni-trile], 0.02 nM.

On to `O=C1CCC2(CN(C(=O)N3CC4(CC(Cc5ncc(C(F)(F)F)cn5)C4)C3)C2)N1` [Example 19, 2-[6-[[5-(trifluoromethyl)pyrimi-din-2-yl]methyl]-2-azaspiro[3.3]heptane-2-carbonyl]-2,5-diazaspiro[3.4]octan-6-one], for which the IC50 is 7 nM. Compared with the last molecule, the IC50 is about 350-fold higher.

The term IC50 denotes the concentration that gives 50% inhibition. Low readings indicate greater potency, high ones weaker potency.
